Data as given in PubChem BioAssay (NCI).
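Compound exposure: 48 hours, 5 concentrations, 96-well plates. GI50 marks 50% less growth. TGI is the concentration that stops growth completely.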

Assays:
Experiment in all cases: NCI tumour cell line growth inhibition, 48 h
SF-268 CNS = tested on: SF-268 CNS
MDA-MB-435 = tested on: MDA-MB-435
COLO 205 colon = tested on: COLO 205 colon
SN12C renal = tested on: SN12C renal
MDA-N = tested on: MDA-N
KM12 colon = tested on: KM12 colon
LOX IMVI melanoma = tested on: LOX IMVI melanoma
BT-549 breast = tested on: BT-549 breast
HOP-92 NSCLC = tested on: HOP-92 NSCLC
SK-MEL-5 melanoma = tested on: SK-MEL-5 melanoma

Row | Structure (SMILES) | TGI (SF-268 CNS) [µM] | TGI (MDA-MB-435) [µM] | TGI (COLO 205 colon) [µM] | TGI (SN12C renal) [µM] | TGI (MDA-N) [µM] | TGI (KM12 colon) [µM] | TGI (LOX IMVI melanoma) [µM] | TGI (BT-549 breast) [µM] | TGI (HOP-92 NSCLC) [µM] | TGI (SK-MEL-5 melanoma) [µM] | GI50 (SF-268 CNS) [µM] | GI50 (SN12C renal) [µM] | GI50 (KM12 colon) [µM] | GI50 (LOX IMVI melanoma) [µM] | GI50 (BT-549 breast) [µM] | GI50 (HOP-92 NSCLC) [µM] | GI50 (SK-MEL-5 melanoma) [µM] | GI50 (MDA-MB-435) [µM] | GI50 (MDA-N) [µM]
1 | c1ccc(-c2sc(-c3cccs3)cc2Cc2cccs2)cc1 | > 10 | > 10 | > 10 | > 10 | > 10 | > 10 | > 10 | > 10 | > 10 | > 10 |  |  |  |  |  |  |  |  | 
2 | CCOC(=O)Nc1c(C#N)[n+]([O-])c2cc(Cl)c(Cl)cc2[n+]1[O-] | 34.3 | 36.6 | 30.3 | 32 | 43 | 64.8 | 27.9 | 36.3 | 23 | 24.9 |  |  |  |  |  |  |  |  | 
3 | CC(C)C(C/C=C1\CC(CO)(COC(=O)c2ccccc2)OC1=O)C(C)C (stereo unspecified) | 35.5 | > 100 | 25.4 | 31.1 | 57.8 | 35.6 | 54.6 | 36.9 | 29.3 | 29.7 |  |  |  |  |  |  |  |  | 
4 | N#Cc1c(SCc2ccccc2)nc(-c2ccccc2)[nH]c1=S | 57 | 61.3 | 48.8 | 82 | 67.1 | 34.5 | 63.9 | 54.2 | 85.7 | 54.8 |  |  |  |  |  |  |  |  | 
5 | COc1cc(OC)c2c(O)c3c(cc2c1)CC(C)(C)CC3=O | > 100 | > 100 | > 100 | > 100 | > 100 | > 100 | > 100 | > 100 | > 100 | > 100 |  |  |  |  |  |  |  |  | 
6 | O=C1C(NCCc2ccc(O)c(O)c2)=CC(=O)c2ncccc21 | 66.5 | 3.28 | 28 | 34.4 | 4.74 | 30.5 | 26.7 | 19.6 | 54.3 | 15.4 |  |  |  |  |  |  |  |  | 
7 | C=CC1ON(Cc2ccccc2)CCc2cc(OC)c(OC)cc21 (stereo unspecified) | > 100 | 84.9 | > 100 | > 100 | 89.5 | > 100 | > 100 | > 100 | > 100 | 31.6 |  |  |  |  |  |  |  |  | 
8 | Clc1ccc(Cc2nc3ccc(CCN4CCN(c5ccccc5)CC4)cc3[nH]2)cc1 | > 100 | 26.6 | 15.3 | 33.8 | 30.6 | 24.1 | 27 | 34 | 73.8 | 25.3 |  |  |  |  |  |  |  |  | 
9 | COc1ccc2[nH]c(Cl)c(/C=C3/C(=O)Nc4cc(C)c(OC)cc43)c2c1 | 19.3 | 3.51 | 5.9 | 20.1 | 3.5 | 23.2 | 17.5 | 21.5 | 28.9 | 6.32 |  |  |  |  |  |  |  |  | 
10 | CC(C)=CC(=O)O[C@H]1C(=O)O[C@@H]2C[C@H]3[C@H](C)C(=O)C(O[C@@H]4O[C@H](CO)[C@@H](O)[C@H](O)[C@H]4O)=C[C@]3(C)[C@H]3[C@@H](O)[C@H](O)[C@]4(C(=O)O)OC[C@]32[C@@H]14 | > 100 | > 100 | > 100 | > 100 | > 100 | > 100 | > 100 | > 100 | > 100 | > 100 | > 100 | > 100 | 49.1 | 40.3 | > 100 | 31.4 | 42.9 |  | 
11 | Cc1c(C(=O)N2CCN(c3ccc([N+](=O)[O-])cc3)CC2)[n+](=O)c2cc(Cl)c(Cl)cc2n1[O-] | 35.2 | > 100 | > 100 | 38.2 | > 100 | > 100 | > 100 | 33 | 34.4 | 24.6 |  |  |  |  |  |  |  |  | 
12 | CC(=O)N1CCc2c([nH]c3ccc(Br)cc23)C1c1ccccc1 (stereo unspecified) | > 10 | > 10 | > 10 | > 10 | > 10 | > 10 | > 10 | > 10 | > 10 | > 10 |  |  |  |  |  |  |  |  | 
13 | CCOC(=O)N1CCN(c2ccc3c(C)cc(C)nc3n2)CC1 | > 100 | > 100 | > 100 | > 100 | > 100 | > 100 | > 100 | > 100 | > 100 | > 100 |  |  |  |  |  |  |  |  | 
14 | COC(=O)c1cc(NC(=O)c2cc(NC(=O)c3cc([N+](=O)[O-])cn3C)cn2C)cn1C | > 100 | > 100 | > 100 | > 100 | > 100 | > 100 | > 100 | > 100 | 95.7 | 91.9 |  |  |  |  |  |  |  |  | 
15 | Clc1cc2c(c(CSC3=NCN(CC4CC4)CN3)c1)OCOC2 | 98.3 | 74.3 | 28.4 | > 100 | 38.6 | > 100 | > 100 | 51.5 | > 100 | 32.2 |  |  |  |  |  |  |  |  | 
16 | Cn1c(C(C#N)c2nc(Cl)ncc2Br)nc2ccccc21 (stereo unspecified) | > 100 | > 100 | > 100 | > 100 | > 100 | > 100 | > 100 | > 100 | > 100 | > 100 |  |  |  |  |  |  |  |  | 

Row | Structure (SMILES) | TGI (SF-268 CNS) [µM] | TGI (MDA-MB-435) [µM] | TGI (COLO 205 colon) [µM] | TGI (SN12C renal) [µM] | TGI (MDA-N) [µM] | TGI (KM12 colon) [µM] | TGI (LOX IMVI melanoma) [µM] | TGI (BT-549 breast) [µM] | TGI (HOP-92 NSCLC) [µM] | TGI (SK-MEL-5 melanoma) [µM] | GI50 (SF-268 CNS) [µM] | GI50 (SN12C renal) [µM] | GI50 (KM12 colon) [µM] | GI50 (LOX IMVI melanoma) [µM] | GI50 (BT-549 breast) [µM] | GI50 (HOP-92 NSCLC) [µM] | GI50 (SK-MEL-5 melanoma) [µM] | GI50 (MDA-MB-435) [µM] | GI50 (MDA-N) [µM]
17 | Cc1ccc(OCC2OC(n3cnc4nc(Cl)nc(Cl)c43)CC2Oc2ccc(C)cc2)cc1 (stereo unspecified) | 23.4 | 24.3 | 27.6 | 20.5 | 13.7 | 23.7 | 3.45 | 30.4 | 9.88 | 30.8 |  |  |  |  |  |  |  |  | 
18 | ClC(Cl)(Cl)C1=N[C@H]2[C@H](Br)[C@@H]3O[C@@H](c4ccccc4)[C@H](c4ccccc4)O[C@@H]3[C@H]2O1 | 37.2 | 42.4 | 30 | 37.2 | 38 | 45.6 | 33.3 | 53 | 31.5 | 31.2 |  |  |  |  |  |  |  |  | 
19 | CCOC(=O)c1c(Br)c(-c2ccc(Br)cc2)c(Br)n1C | 75.9 | 22.6 | 34.3 | 84 | 32.5 | 26.4 | 30.4 | 79.4 | 55.7 | 35.2 |  |  |  | 14.3 |  | 14.3 |  | 4.26 | 5.64
20 | CC(C)CCC[C@@H](C)[C@H]1CCC2C3CC=C4C[C@@H](Oc5c6ccccc6nc6ccccc56)CCC4C3CCC21 (stereo partly specified) | > 50 | > 50 | > 50 | > 50 | > 50 | > 50 | > 50 | > 50 | > 50 | > 50 |  |  |  |  |  |  |  |  | 
21 | COC1=C(N=[N+]=[N-])C(=O)c2ncccc2C1=O | 28.5 | 4.41 | 6.35 | 29.1 | 3.69 | 29.5 | 7.78 | 23 | 2.56 | 23.4 |  |  |  |  |  |  |  |  | 
22 | COc1cccc(-c2ccc3c4c2O[C@H]2c5[nH]c6ccccc6c5C[C@@]5(O)[C@@H](C3)N(CC3CC3)CC[C@]425)c1 | 3.37 | 3.18 | 4.15 | 3.13 | 3.28 | 3.26 | 3.09 | 15.9 | 3.04 | 3.85 |  |  |  |  |  |  |  |  | 
23 | CCCCCCCCCCCCCCCCCCNc1ccn(C2OC(COP(=O)(O)OCC3CCC(n4cnc5c(=O)[nH]cnc54)O3)C(O)C2O)c(=O)n1 (stereo unspecified) | > 100 | > 100 | > 100 | > 100 | > 100 | > 100 | > 100 | > 100 | > 100 | > 100 |  |  |  |  |  |  |  |  | 
24 | CNc1ccc(-c2nc3cc(C)ccc3o2)cc1 | > 100 | > 100 | > 100 | > 100 | > 100 | > 100 | > 100 | > 100 | > 100 | > 100 |  |  |  |  |  |  |  |  | 
25 | O=C1Sc2ccc(Br)cc2C(=O)Sc2ccccc21 | 22.3 | 21.7 | 28.4 | 34.8 | 22.8 | 33.8 | 25.3 | 28.2 | 33.6 | 29.5 |  |  |  |  |  |  |  |  | 
26 | CCOc1cc(NC(C)=O)ccc1C(=O)NN1C(=O)C(Oc2ccccc2)C1c1ccccc1 (stereo unspecified) | > 100 | > 100 | > 100 | > 100 | > 100 | > 100 | > 100 | > 100 | > 100 | > 100 |  |  |  |  |  |  |  |  | 
27 | CCOC(=O)/C(=C\c1ccc(N(C)C)cc1)S(=O)(=O)C(F)(F)C(F)(F)C(F)(F)C(F)(F)F | > 100 | > 100 | > 100 | > 100 | > 100 | > 100 | > 100 | > 100 | > 100 | > 100 |  |  |  |  |  |  |  |  | 
28 | CCOC(=O)c1cc(C(=O)c2ccccc2)n2nc(-c3ccc(Cl)cc3)ccc12 | 27.6 | > 100 | > 100 | 78.6 | > 100 | 53.5 | > 100 | 35.4 | 60.5 | 51.9 |  |  |  |  |  |  |  |  | 
29 | O=C(NCCC(F)(F)C(F)(F)C(F)(F)C(F)(F)F)NC1OC(CO)C(O)C(O)C1O (stereo unspecified) | > 100 | > 100 | > 100 | > 100 | > 100 | > 100 | > 100 | > 100 | > 100 | > 100 |  |  |  |  |  |  |  |  | 
30 | CC(C(=O)ON1C(=O)CCC1=O)c1ccc(C(=O)c2ccccc2)s1 (stereo unspecified) | > 100 | > 100 | > 100 | > 100 | > 100 | > 100 | > 100 | > 100 | > 100 | > 100 |  |  |  |  |  |  |  |  | 
31 | Cn1c(=O)c2c(nc3n(Cc4ccccc4)c(=O)c(NCCBr)cn23)n(C)c1=O | > 100 | > 100 | > 100 | > 100 | > 100 | > 100 | > 100 | > 100 | 36.2 | > 100 |  |  |  |  |  |  |  |  | 
